Assay [1] relates to Adjuvant Arthritis (CFA induced). Briefly: Adjuvant induced arthritis in rats. The format is in vivo. The procedure:
Arthritis or inflammation in the joint was induced by injection of Complete Freund's Adjuvant (CFA) into the left hind footpad of rats (animals). The animals were divided into three groups namely, Control, Ibuprofen and Formulation B. The role of Formulation B on specific cytokine blockade in the etiology of cachexia caused by Adjuvant Arthritis (AA) was evaluated. The parameter considered for the evaluation included paw thickness as a percent of paw thickness at Day 0 and percent body weight gain in animals. FIG. 4 illustrates paw thickness in animals as a percent of the paw thickness at Day 0 during the Adjuvant Induced Arthritis study in animals. Whereas, FIG. 5 illustrates percent body weight gain in animals during the Adjuvant Induced Arthritis study in animals.

The subject of a further assay is DSS induced colitis. Briefly: Dextran Sodium Sulfate (DSS) induced colitis. The format is in vivo. The settings on record: oral DSS in mice. The source says:
Inflammation was induced in mice (animal) using oral administration of DSS.

`CC(C)Cc1ccc(C(C)C(=O)O)cc1` (stereo not shown) [Ibuprofen]: the “effect on cytokine inhibition” value in assay [1] (CFA into left hind footpad) is reported as “did not show any effect”. Moreover, in assay [1] (compared to control animals, FIG. 5), the “percent body weight gain (AA-associated weight loss)” value is recorded as “lost body weight significantly”.

With `O=C(O)c1cc(/N=N/c2ccc(S(=O)(=O)Nc3ccccn3)cc2)ccc1O` [Sulfasalazine], in the assay on DSS induced colitis, the “reduction in food intake” value is “recovered”. For the same compound, in the assay on DSS induced colitis (FIG. 13), the body weight loss result is given as “improved the body weight loss”.

Source of the values: patent publication US20170007625A1, “NOVEL FORMULATIONS TO INHIBIT CYCLOOXYGENASE AND PRO-INFLAMMATORY CYTOKINE MEDIATED DISEASES” (Bioved Pharmaceuticals, Inc., priority 2008, published 2017).
